Results published in patent US20180008563A1 (priority 2015, published 2018).
Like-named read-outs stand apart in the source and are kept apart here.

Columns and labels:
PEDV = details: Kim et al., Virus Research (2013); cited from earlier work
[1] = tested on: porcine epidemic diarrhea; experiment: Prevention of porcine epidemic diarrhea of weaned piglets, care pigs and finishing pigs; assay type: in vivo; details: taurine 200 mg per kilogram of body weight per day
Description: Prevention of the porcine epidemic diarrhea on the weaned piglets, the care pigs and the finishing pigs with taurine was implemented by orally administering taurine to a swine herd, wherein the administration may be carried out by means of feeding in water or mixed feeding.
a preventative administration was carried out during an epidemic period of the disease, or in autumn, winter and spring when the temperature was low and changed greatly, that is, in the season when the porcine epidemic diarrhea frequently occurs. Generally, the administration can be carried out for a long-term. In consideration of the use-cost, the drug administration time is preferably 3-30 days, and more preferably, 7-14 days. The effect is subject to an obvious time-effect relationship.
0.005-2% by weight of taurine was added in daily-drinking water for the pigs to drink freely; or taurine accounting for 0.01-5% by weight of the feed was added thereto, which is equivalent to a dosage of 50-10000 mg per kilogram of body weight per day of taurine, and the administration was in a single dose or in divided doses. The effect is subject to an obvious quantity-effect relationship.
120 healthy weaned piglets, 120 healthy care pigs and 120 healthy finishing pigs were selected and randomly divided into two groups equivalently. Control group: conventional feeding; experimental group: conventional feeding+taurine (the dosage of taurine was 200 mg per kilogram of body weight per day).
I. The pharmaceutical composition according to Embodiment 6 was used for the prevention of porcine epidemic diarrhea of the newborn piglets, weaned piglets, care pigs and finishing pigs. Particularly, a mode of the administration for the newborn piglets was the same as the method in Embodiment 1, i.e. each pregnant sow was administered with 50 g of the pharmaceutical composition in Embodiment 6 per day, and the administration was in a single dose or in divided doses. […]

[2] = tested on: porcine epidemic diarrhea; experiment: Treatment of porcine epidemic diarrhea of newborn suckling piglets (piglets and lactating sows treated); assay type: in vivo, pigs; details: diseased newborn suckling piglets; taurine 100 g per sow per day, 0.2 g per piglet per day
Description: Treatment of the porcine epidemic diarrhea on newborn piglets with taurine was implemented by orally administering a taurine solution to diseased suckling piglets and administering taurine to lactating sows, that is, simultaneous treatment of both the suckling piglets and the lactating sows.
the administration by drenching/mixed-feeding was carried out on the day when the disease occurred in the suckling piglets, and a non-interrupted administration lasted for 3-10 days. Lactating sows: non-interrupted oral administration lasted for 5-10 days.
the administration by drenching or mixed-feeding was carried out on the day when the disease occurred in the suckling piglets. The administration by drenching: 2% taurine solution at a dosage of 1-5 mL per time and it was taken 2-6 times per day. The administration by mixed-feeding: 1-20 g/L of taurine solution was drunk freely. Lactating sows: each sow was administered with 5-500 g of taurine per day and the administration was in a single dose or in divided doses.
40 litters of diseased newborn suckling piglets and sows thereof were selected and randomly divided into two groups equivalently. Control group: conventional supportive therapy (fluid infusion+antibiotic therapy+atropine sulfate); experimental group: treatment with taurine.
II. […]

rotavirus diarrhea = experiment: Treatment of rotavirus diarrhea; assay type: in vivo, pigs
[3] = tested on: porcine transmissible gastroenteritis; assay type: in vivo, pigs
[4] = tested on: porcine epidemic diarrhea; experiment: Treatment of porcine epidemic diarrhea of weaned piglets, care pigs and finishing pigs; assay type: in vivo; details: taurine 300 mg per kilogram of body weight per day
Description: Treatment of the porcine epidemic diarrhea on the weaned piglets, the care pigs and the finishing pigs with taurine was implemented by orally administering taurine to the pigs, wherein the administration may be carried out by means of feeding in water or mixed feeding.
the administration was carried out from the day of occurrence of the disease, and in consideration of the use-cost, the drug administration time is preferably 3-30 days, and more preferably 7-14 days. The effect is subject to an obvious time-effect relationship.
0.1-2% by weight of taurine was added in the daily-drinking water for the pigs to drink freely; or taurine accounting for 0.2-5% of the feed was added thereto, which is equivalent to a dosage of 100-10000 mg per kilogram of body weight per day of taurine, and the administration was in a single dose or in divided doses. The effect is subject to an obvious quantity-effect relationship.
60 diseased weaned piglets, 60 diseased care pigs and 60 diseased finishing pigs were selected, and were randomly divided into two groups equivalently. Control group: conventional supportive therapy (fluid infusion+antibiotic therapy+atropine sulfate); experimental group: treatment with taurine (the dosage of taurine was 300 mg per kilogram of body weight per day).
II. The pharmaceutical composition according to Embodiment 6 was used for the treatment of porcine epidemic diarrhea of the newborn piglets, weaned piglets, care pigs and finishing pigs. A mode of the administration for the newborn piglets was the same as the method in Embodiment 2, i.e. the administration by drenching and/or mixed-feeding was carried out on the day when the disease occurred in the suckling piglets. The administration by drenching: a solution with a mass concentration of 5% was prepared from the pharmaceutical composition in Embodiment 6 with a dosage of 2-4 mL per time and it was taken 2-6 times per day. The administration by mixed-feeding: 4 g/L of the solution was drunk freely. […]

[5] = tested on: pseudorabies viral diarrhea; assay type: in vivo, pigs
epidemic diarrhea = details: diseased piglets, oral, a certain dose; cited from earlier work
[6] = care pigs, taurine dosage as in Embodiment 4 (300 mg per kilogram of body weight per day)
[7] = newborn piglets, taurine dosage as in Embodiment 2 (100 g per sow per day, 0.2 g per piglet per day)
[8] = weaned piglets, taurine dosage as in Embodiment 4 (300 mg per kilogram of body weight per day)

For NC(=O)c1ncn([C@@H]2O[C@H](CO)[C@@H](O)[C@H]2O)n1 [Ribavirin], the “inhibition of replication of PEDV” value (PEDV) is listed as “capable of inhibiting replication of PEDV”.

In the case of NCCS(=O)(=O)O [taurine, β-aminoethanesulfonic acid], the Prognosis ([1]; care pigs) is reported as “Excellent”, the Prognosis ([1]; finishing pigs) is reported as “Excellent” and the Prognosis ([1]; weaned piglets) is reported as “Excellent”. The Prognosis [2] was “Good”, the Prognosis (rotavirus diarrhea; [6]) was “Good” and the Prognosis (rotavirus diarrhea; [7]) was “Good”. For the same molecule, the Prognosis (rotavirus diarrhea; [8]) was “Good”, the Prognosis [3, 6] was “Good” and the Prognosis ([3]; finishing pigs, taurine dosage as in Embodiment 4 (300 mg per kilogram of body weight per day)) was “Good”. For the same molecule, the Prognosis [3, 7] was “Good”, the Prognosis [3, 8] was “Good” and the Prognosis ([4]; diseased care pigs) was “Good”. The Prognosis ([4]; diseased finishing pigs) was “Good”, the Prognosis ([4]; diseased weaned piglets) was “Good” and the Prognosis [5, 6] was “General”. For the same molecule, the “treatment effect on the pseudorabies viral diarrhea” value ([5]; summary in text of Table 5) was “no treatment effect”.

In the case of povidone iodine, the “improvement of survival rate” value (epidemic diarrhea) is given as 5-10% and the “prognosis of survived suckling piglets” value (epidemic diarrhea) is given as “unfavourable prognosis”.
